# Values of other authors, collected in patent US20020110580A1, “Nutritional composition for improving the efficacy of a lipase inhibitor” (priority 2000, published 2002).
# Key:
# [1] = individuals receiving CCK
Molecule,gastric emptying of both the solid and fat phases of a mixed meal,CCK release (mixed meal),reduction in caloric intake [1]
"CCCCCCCCCCC[C@@H](C[C@@H]1OC(=O)[C@H]1CCCCCC)OC(=O)[C@H](CC(C)C)NC=O [Orlistat, tetrahydrolipstatin]",accelerated,decreased,–
"Cholecystokinin (peptide, UniProt P06307 21-115, looked up, Cholecystokinin) Cholecystokinin: QPVPPADPAGSGLQRAEEAPRRQLRVSQRTDGESRAHLGALLARYIQQARKAPSGRMSIVKNLQNLDPSHRISDRDYMGWMDFGRRSAEEYEYPS",–,–,16-22%
